Assay results from US7388097B2, “Difluoromethyl thiazolyl carboxanilides” (Bayer CropScience AG, priority 2002, dated 2008).

Tests used:
[1] = logP determination by HPLC on reverse-phase column (C 18), EEC Directive 79/831 Annex V.A8; type: physicochemical; settings: reverse-phase C18 HPLC column; pH 2.3; HPLC reverse-phase C 18; 43° C.; 0.1% aqueous phosphoric acid/acetonitrile gradient
Protocol: The determination of the logP values given in the tables and Preparation Examples above is carried out in accordance with EEC Directive 79/831 Annex V.A8 by HPLC (High Performance Liquid Chromatography) on a reverse-phase column (C 18). Temperature: 43° C.
The determination is carried out in the acidic range at pH 2.3 using the mobile phases 0.1% aqueous phosphoric acid and acetonitrile; linear gradient from 10% acetonitrile to 90% acetonitrile.
Calibration is carried out using unbranched alkan-2-ones (of 3 to 16 carbon atoms) with known logP values (determination of the logP values by the retention times using linear interpolation between two successive alkanones).

Venturia inaequalis = experiment: Venturia Test (Apple)/Protective; type: in vivo; settings: 240 h, protective spray, application rate 10 g/ha, evaluation 10 days after inoculation, 100% = no infection, read-out: % efficacy
Protocol: Venturia Test (Apple)/Protective
(§1) To produce a suitable preparation of active compound, 1 part by weight of active compound is mixed with the stated amounts of solvents and emulsifier, and the concentrate is diluted with water to the desired concentration.
To test for protective activity, young plants are sprayed with the preparation of active compound at the stated application rate. After the spray coating has dried on, the plants are inoculated with an aqueous conidia suspension of the apple scab pathogen Venturia inaequalis and then remain in an incubation cabin at about 20° C. and 100% relative atmospheric humidity for 1 day.
The plants are then placed in a greenhouse at about 21° C. and a relative atmospheric humidity of about 90%.
Evaluation is carried out 10 days after the inoculation. 0% means an efficacy which corresponds to that of the control, whereas an efficacy of 100% means that no infection is observed.

Botrytis cinerea = experiment: Botrytis Test (Bean)/Protective; type: in vivo; settings: 48 h, protective spray, application rate 100 g/ha, evaluation 2 days after inoculation, 100% = no infection, read-out: % efficacy
Protocol: Botrytis Test (Bean)/Protective
as §1
To test for protective activity, young plants are sprayed with the preparation of active compound at the stated application rate. After the spray coating has dried on, 2 small pieces of agar colonized by Botrytis cinerea are placed onto each leaf. The inoculated plants are placed in a dark chamber at about 20° C. and 100% relative atmospheric humidity.
2 days after the inoculation, the size of the infected areas on the leaves is evaluated. 0% means an efficacy which corresponds to that of the control, whereas an efficacy of 100% means that no infection is observed.

Rhizoctonia solani = experiment: In vitro test for the ED50 determination of microorganisms; type: cell-based; settings: 50% inhibition of fungal growth, tested at 0.1, 1, 10 and 100 ppm, 22° C., 3-5 days, photometric 620 nm
Protocol: (§2) In Vitro Test for the ED50 Determination of Microorganisms
(§3) A methanolic solution of the active compound to be tested, mixed with the emulsifier PS16, is pipetted into the wells of microtiter plates. After the solvent has evaporated, 200 μl of potato/dextrose medium are added to each well.
(§4) Beforehand, a suitable concentration of spores or mycelium of the fungus to be tested was added to the medium.
(§5) The resulting concentrations of active compound are 0.1, 1, 10 and 100 ppm. The resulting concentration of the emulsifier is 300 ppm.
(§6) The plates are then incubated on a shaker at a temperature of 22° C. for 3-5 days, until sufficient growth can be observed in the untreated control.
(§7) Evaluation is carried out photometrically at a wavelength of 620 nm. The dose of active compound which causes a 50% inhibition of fungal growth compared to the untreated control (ED50) is calculated from the data measured at different concentrations.

Septoria tritici = experiment: as above; type: cell-based; settings: 50% inhibition of fungal growth, tested at 0.1, 1, 10 and 100 ppm, 22° C., 3-5 days, photometric 620 nm
Protocol: as §2, §3, §4, §5, §6, §7

| chromatographic logP [1] | SMILES | pest or weed control at 10 g/ha (Venturia inaequalis) | pest or weed control at 100 g/ha (Botrytis cinerea) | ED50 (Rhizoctonia solani) | ED50 (Septoria tritici) |
| --- | --- | --- | --- | --- | --- |
| 3.28 | Cc1nc(C(F)F)c(C(=O)Nc2ccccc2-c2ccc(F)c(Cl)c2)s1 [Example 1, N-(3′-chloro-4′-fluoro-1,1′-biphenyl-2-yl)-2-methyl-4-(difluoromethyl)-1,3-thiazole-5-carboxamide] | – | – | – | – |
| 3.37 | Cc1nc(C(F)F)c(C(=O)Nc2ccccc2-c2cccc(Cl)c2)s1 [Example 4] | 100% | 100% | < 0.1 ppm | 0.45 ppm |
| 3.58 | Cc1nc(C(F)F)c(C(=O)Nc2ccccc2-c2ccc(Cl)cc2Cl)s1 [Example 9] | 98% | 95% | – | – |
| 3.29 | Cc1nc(C(F)F)c(C(=O)Nc2ccccc2-c2ccc(Cl)c(F)c2)s1 [Example 11] | 100% | 100% | – | – |
| 3.62 | Cc1nc(C(F)F)c(C(=O)Nc2ccccc2-c2ccc(C)c(Cl)c2)s1 [Example 12] | 100% | 100% | – | – |

Continued, compound first:

| SMILES | chromatographic logP [1] | pest or weed control at 10 g/ha (Venturia inaequalis) | pest or weed control at 100 g/ha (Botrytis cinerea) | ED50 (Rhizoctonia solani) | ED50 (Septoria tritici) |
| --- | --- | --- | --- | --- | --- |
| Cc1nc(C(F)F)c(C(=O)Nc2ccccc2-c2ccc(Br)cc2)s1 [Example 2] | 3.47 | 100% | 100% | – | – |
| Cc1nc(C(F)F)c(C(=O)Nc2ccccc2-c2ccc(C(F)(F)F)cc2)s1 [Example 3] | 3.52 | 100% | 100% | < 0.1 ppm | 0.36 ppm |
| Cc1nc(C(F)F)c(C(=O)Nc2ccccc2-c2ccc(OC(F)(F)F)cc2)s1 [Example 5] | 3.72 | 87% | 79% | < 0.1 ppm | 0.25 ppm |
| CSc1ccc(-c2ccccc2NC(=O)c2sc(C)nc2C(F)F)cc1 [Example 6] | 3.39 | 99% | 94% | 3.25 ppm | 3.51 ppm |
| Cc1nc(C(F)F)c(C(=O)Nc2ccccc2-c2ccc(F)cc2)s1 [Example 7] | 3.09 | 100% | 94% | 0.48 ppm | 0.68 ppm |
| Cc1nc(C(F)F)c(C(=O)Nc2ccccc2-c2ccc(Cl)cc2C)s1 [Example 10] | 3.77 | 100% | 100% | – | – |
